Results as given in US20030171306A1, “Cancer treatment method” (priority 2002, published 2003).
Where a name gives a salt, the structure may show the parent alone.

What was measured:
[1] = test system: multiple stage neutrophil progenitors; assay: CD15 neutrophil antigen cell-based ELISA (CELISA); settings: for CD15 signal from the cell cultures with increasing concentrations of the drug: anti-neoplastic drug on expanded CD34+ cells, 24 h
Source text: Three methods, more completely described in the following examples, were utilized for a determination of cell survival and ability to produce daughter cells of primary human neutrophil progenitors: (1) a FACS assay which determined the percent of live cells by size and granularity; (2) a colony forming assay which measured the number of CFU-GM progenitors (a specific early stage neutrophil progenitor); and (3) a cell-based ELISA which measured CD15 antigen the value of which was proportional to the number of neutrophil lineage cells. This assay allows evaluation of neutrophil progenitors (cells that can divide and produce daughter neutrophil-lineage cells) at multiple stages of differentiation.
Expanded CD34^+ stem cells were isolated as described in Example 2 and grown in complete growth media. The expanded CD34^+ cells were treated with DMSO or rolipram plus forskolin as previously described. […] After the treatment, the cells were counted, washed twice with 4 ml of HBSS supplemented with 2% FBS, and resuspended in complete growth media. The expression of CD15 antigen was used as a measure of the number of neutrophil lineage cells expanded from surviving progenitors of multiple stages of differentiation.
The cells were plated at a set number into 96-well plates in 100 μl volume per well of complete media. […] The plates were harvested at different time points by centrifuging at 450 G for 10 minutes at room temperature (RT) and the cells were washed several twice in HBSS by centrifugation of the plates. The cells were removed by suspension twice in HBSS with 5 mM EDTA with 100 μl per well and transfer of the total 200 μl volume to capture plates (Costar DNA-bind, #2498) that had been pretreated with 1% gluteraldehyde and stored (Warren et al., 1995 Stem Cells 13:167-174).
For CELISA, the preservative solution (PBS, 0.1% BSA, 0.1% azide) was removed from the capture plate and the wells were washed with 100 μl PBS. […] The plates were washed twice with 300 μl PBS/well and incubated with a secondary antibody (goat anti-mouse IgM-biotin, Sigma B-9265, 0.105 μg/well, 100 μl PBS with 5% goat sera) at RT for 60 min. After three to six 200 μl/well washes, strepavidin-horseradish peroxidase (Pierce 21126, 0.1 μg/well in a 1% solution of stable peroxide buffer, Pierce 34062) was added. The plates were incubated for ten minutes and washed three to six times with 200 μl/well. For the final detection step, the chemiluminescent reagent Supersignal® Ultra (Pierce 34075) prepared just prior to use by mixing equal parts of the luminol enhancer and the stable peroxide was added to the plates (100 μl per well) and gently mixed for five minutes at RT. The plates were read on a Wallace Victor II machine for one second for chemiluminescence at 425 nm.
The data from the Wallac Victor were transferred to Excel for analysis. Averages of replicate wells from treated cells were calculated along with standard error of the mean (sem) of the counts minus the background signal from replicate wells with media only (no cells).

[2] = test system: specific early neutrophil progenitors (CFU-GMs); assay: CFU-GM colony forming assay; format: cell-based, human; settings: for number of CFU-GM colonies with increasing amounts of the drug: anti-neoplastic drug on expanded CD34+ cells, 24 h, colonies counted after 12 to 14 days
Method: Expanded CD34^+ cells, prepared according to the procedure of Example 2, were isolated and pretreated with DMSO or rolipram plus forskolin as described in Example 2. […] The cells were then plated in a semi solid growth medium for the growth of CFU-GMs following a published method with the exception that the G-CSF (10 ng/ml) was included in place of GM-CSF and erythropoietin (Dornsife, R E et al., Antimicrob Agents Chemother, 35: 322-328, (1991); Dornsife R E; Averett D R., Antimicrob Agents Chemother, 40(2): 514-519, (1996)). The CFU-GMs were counted after 12 to 14 days. The results are depicted in FIG. 3.

[3] = test system: CCL64 mink lung epithelial cells; assay: Protection of mink lung epithelial cells from paclitaxel, sulforhodamine B stain; format: cell-based; settings: PDE4 inhibitor 1 μM plus forskolin 100 μM 24 h, then paclitaxel 10 nM 48 h
Method: CCL64 mink lung epithelial cells (ATCC #CCL-64) were grown in DMEM supplemented with 10% FBS and 1% penicillin-streptomycin and seeded into 96-well plates. After overnight incubation at 37° C. cells were treated with 100 μM forskolin in combination with each of the PDE4 inhibitors (1 μM). After 24 hours of treatment, paclitaxel was added to wells at various concentrations up to 10 nM. Time zero control plates were harvested by staining with Sulforhodamine B (Skehan P. et. al., (1990), J. Nat'l Cancer Inst 82:1107-12.) After an additional 48 hours of incubation at 37° C., the plates were harvested and stained with sulforhodamine B. The absorbance of the samples was read at the optical density of 562 nm. The no-drug controls were set to 100% and values were normalized to time zero control. As indicated in Example 8, cells were pre-treated with forskolin plus various PDE4 inhibitors (1 μM) and then challenged with paclitaxel at various concentrations. The sulforhodamine B signal from the cells was expressed as percent of control (no-drug, vehicle only). An increase in signal, indicating protection, ranged from 85% to 130% with the cells pre-treated with forskolin plus a particular PDE4 inhibitor and followed by a paclitaxel challenge at 10 nM.

[4] = test system: expanded CD34+ stem cells; assay: Flow cytometric (FACS) evaluation of surviving and apoptotic fractions of expanded CD34+ cells; format: cell-based, human
Method: A T-test analysis ([…], with application of either equal or unequal variance [difference in standard error of the mean (sem) < or >3-fold, respectively) was performed to compare between treatment groups to determine if statistically significant differences existed (MS Excel, SAS JMP).

normal progenitor cells = assay: Cell based assays utilized herein, PDE4 inhibitor used alone; settings: without forskolin
[5] = test system: human HT-29 colon tumor line; assay: Tumor cell growth after chemoprotectant regimen and paclitaxel, sulforhodamine B; format: cell-based; settings: forskolin 100 μM plus PDE4 inhibitor 1 μM, then paclitaxel 100 nM 24 h, versus DMSO
Method: (§1) The human tumor cell lines HT-29 (colon: ATCC #HTB 38), RKO (colon, ATCC #HTB 130), lines A549 (lung, ATCC #CCL 185), and MDA468 (breast, ATCC #HTB 132) were obtained from the American Type Culture Collection and maintained in DMEM containing 10% FBS. Tumor cells were grown at 37° C. in a humidified atmosphere of 5% CO2. Adherent tumor cells were seeded into 96 well plates and incubated for six hours to allow for attachment. After six hours the chemoprotectants forskolin (100 μM) plus rolipram (1 μM) or forskolin (100 μM) plus ariflo (1 μM) were added. After overnight incubation, paclitaxel (100 nM) was added for 24 hours. Cells were then washed free of chemoprotectants and paclitaxel, placed in fresh media, and grown for 5 days. Growth was measured daily using sulforhodamine B (Skehan P. et. al., (1990), J. Nat'l Cancer Inst 82:1107-12). The results are depicted in FIG. 8.

[6] = test system: human RKO colon tumor line; assay: as above; format: cell-based; settings: forskolin 100 μM plus PDE4 inhibitor 1 μM, then paclitaxel 100 nM 24 h, versus DMSO
Method: as §1

[7] = test system: human A549 lung tumor line; assay: as above; format: cell-based; settings: for effect of chemoprotectant regimen on paclitaxel inhibition of tumor cell growth: forskolin 100 μM plus PDE4 inhibitor 1 μM, then paclitaxel 100 nM 24 h
Method: as §1

With `O=c1[nH]cc(F)c(=O)[nH]1` [5-fluorouracil, 5-fluoro-2,4-(1-H,3H) pyrimidinedione] the “CD15 signal from the cell cultures with increasing concentrations of the drug” value [1] was “decreased” and the “number of CFU-GM colonies with increasing amounts of the drug” value [2] was “decreased in a dose dependent manner”.
For `CCCCn1c(=O)c2c(ncn2CC(C)=O)n(CCCC)c1=O` [Denbufylline, 7-acetonyl,1,3dibutylxanthine], the “Sulforhodamine B signal (survival) as percent of no-drug control” value [3] was 95%.
For `COC(=O)N1C[C@@H](c2ccc(OC)c(OC3CCCC3)c2)[C@](C)(C(C)=O)C1` [GI193600X], the “Sulforhodamine B signal (survival) as percent of no-drug control” value [3] was 120%.
For `CN(Cc1cnc2nc(N)nc(N)c2n1)c1ccc(C(=O)N[C@@H](CCC(=O)O)C(=O)O)cc1` [methotrexate, N-[4[[(2,4-diamino-6-pteridinyl)methyl]methylamino]benzoyl]-L-glutamic acid], the “CD15 signal from the cell cultures with increasing concentrations of the drug” value [1] was “decreased”.
With `COc1ccc(C2CNC(=O)C2)cc1OC1CCCC1` (stereo not shown) [Rolipram] the “apoptotic fraction in paclitaxel treated cells compared with DMSO pretreatment” value ([4]; pretreatment with rolipram plus forskolin) was “significantly reduced the apoptotic fraction”, the surviving cell fraction ([4]; rolipram 1 μM plus forskolin 100 μM 24 h, then paclitaxel 30 nM 24 h) was 86% and the surviving cell fraction ([4]; rolipram 1 μM plus forskolin 100 μM 24 h, then paclitaxel 100 nM 24 h) was 81%. For the same compound, the surviving cell fraction ([4]; rolipram 1 μM plus forskolin 100 μM 24 h, then paclitaxel 300 nM 24 h) was 63%, the surviving cell fraction ([4]; rolipram 1 μM plus forskolin 100 μM 24 h, then paclitaxel 600 nM 24 h) was 59% and the protective effect (normal progenitor cells) was “little protective effect”. For the same compound, the “effect of chemoprotectant regimen on paclitaxel inhibition of tumor cell growth” value [5] was “did not effect the inhibition of tumor cell growth”, the “effect of chemoprotectant regimen on paclitaxel inhibition of tumor cell growth” value [6] was “did not effect the inhibition of tumor cell growth” and the “effect of chemoprotectant regimen on paclitaxel inhibition of tumor cell growth” value [7] was “no additional protection”. For the same compound, the “effect of pretreatment on toxicity towards neutrophil progenitors compared to DMSO” value (“effect of pretreatment … compared to DMSO” below) ([1]; rolipram plus forskolin, then carboplatin) was “no significant difference”, the “effect of pretreatment … compared to DMSO” value ([1]; rolipram plus forskolin, then cisplatin) was “significantly increase the toxicity” and the “effect of pretreatment … compared to DMSO” value ([1]; rolipram plus forskolin, then doxorubicin) was “significantly increase the toxicity”. For the same compound, the “CD15 signal after pretreatment versus DMSO” value ([1]; rolipram plus forskolin, then paclitaxel, 5-FU, etoposide, vinblastine, vinorelbine, methotrexate or topotecan, 99% confidence) was “increased the CD15 signal antigen to a statistically significant level”, the “survival of CFU-GM progenitors” value ([2]; rolipram plus forskolin prior to 5-fluorouracil, etoposide or paclitaxel, versus DMSO) was “increased the survival of CFU-GM progenitors” and the “Sulforhodamine B signal (survival) as percent of no-drug control” value [3] was 110%.
With `CC[C@]1(O)C[C@@H]2CN(CCc3c([nH]c4ccccc34)[C@@](C(=O)OC)(c3cc4c(cc3OC)N(C)[C@H]3[C@@](O)(C(=O)OC)[C@H](OC(C)=O)[C@]5(CC)C=CCN6CC[C@]43[C@@H]65)C2)C1` [Vinblastine, vincaleukoblastine sulfate] the “CD15 signal from the cell cultures with increasing concentrations of the drug” value [1] was “decreased”.
With `COC(=O)c1cccc(-n2c(=O)n(Cc3ccccc3)c(=O)c3cccnc32)c1` [CP-77059] the “Sulforhodamine B signal (survival) as percent of no-drug control” value [3] was 85%.
`CC[C@@]1(O)C(=O)OCc2c1cc1n(c2=O)Cc2cc3c(CN(C)C)c(O)ccc3nc2-1` [topotecan, (S)-10-[(dimethylamino)methyl]-4-ethyl-4,9-dihydroxy-1H-pyrano[3′,4′,6,7]indolizino[1,2-b]quinoline-3,14(4H,12H)-dione monohydrochloride] was tested, and the “CD15 signal from the cell cultures with increasing concentrations of the drug” value [1] was “decreased”.
`O=c1c2cccnc2n(-c2cccc([N+](=O)[O-])c2)c(=O)n1Cc1ccncc1` [RS-25344] was tested, and the “Sulforhodamine B signal (survival) as percent of no-drug control” value [3] was 105%.
In the case of `CCC1=C[C@@H]2CN(C1)Cc1c([nH]c3ccccc13)[C@@](C(=O)OC)(c1cc3c(cc1OC)N(C)[C@H]1[C@@](O)(C(=O)OC)[C@H](OC(C)=O)[C@]4(CC)C=CCN5CC[C@]31[C@@H]54)C2` (relative stereo) [Vinorelbine, 3′,4′-didehydro-4′-deoxy-C′-norvincaleukoblastine [R-(R*,R*)-2,3-dihydroxybutanedioate (1:2)(salt)]], the “CD15 signal from the cell cultures with increasing concentrations of the drug” value [1] is reported as “decreased”.
Work on `CC(=O)O[C@H]1C(=O)[C@@]2(C)[C@H]([C@H](OC(=O)c3ccccc3)[C@]3(O)C[C@H](OC(=O)[C@H](O)[C@@H](NC(=O)c4ccccc4)c4ccccc4)C(C)=C1C3(C)C)[C@]1(OC(C)=O)CO[C@@H]1C[C@@H]2O` [Paclitaxel, 5β,20-epoxy-1,2α,4,7β,10β,13α-hexa-hydroxytax-11-en-9-one 4,10-diacetate 2-benzoate 13-ester with (2R,3S)-N-benzoyl-3-phenylisoserine] yielded a surviving cell fraction ([4]; DMSO pretreatment only 24 h, then paclitaxel 30 nM 24 h) of 45%, a surviving cell fraction ([4]; DMSO pretreatment only 24 h, then paclitaxel 100 nM 24 h) of 27% and a surviving cell fraction ([4]; DMSO pretreatment only 24 h, then paclitaxel 300 nM 24 h) of 23%. The surviving cell fraction ([4]; DMSO pretreatment only 24 h, then paclitaxel 600 nM 24 h) was 18%, the “inhibition of tumor cell growth” value ([7]; paclitaxel 100 nM 24 h) was “not completely inhibited” and the “CD15 signal from the cell cultures with increasing concentrations of the drug” value [1] was “decreased”. For the same compound, the “number of CFU-GM colonies with increasing amounts of the drug” value [2] was “did not exhibit a good dose response”.
In the case of `COc1ccc(C(=O)Nc2c(Cl)cncc2Cl)cc1OC1CCCC1` [Piclamilast, N-(3,5-dichloropyrid-4-yl)-3-cyclopentyloxy-4-methoxybenzamide], the “Sulforhodamine B signal (survival) as percent of no-drug control” value [3] is reported as 130%.
`COc1cc([C@@H]2c3cc4c(cc3[C@@H](O[C@@H]3O[C@@H]5CO[C@@H](C)O[C@H]5[C@H](O)[C@H]3O)[C@H]3COC(=O)[C@H]23)OCO4)cc(OC)c1O` [Etoposide, 4′-demethyl-epipodophyllotoxin 9[4,6-0-(R)-ethylidene-β-D-glucopyranoside]] was tested, and the “CD15 signal from the cell cultures with increasing concentrations of the drug” value [1] was “decreased” and the “number of CFU-GM colonies with increasing amounts of the drug” value [2] was “decreased in a dose dependent manner”.
With `COc1ccc([C@]2(C#N)CC[C@@H](C(=O)O)CC2)cc1OC1CCCC1` [Ariflo, cis-4-cyano-4-[3-(cyclopentyloxy)-4-methoxyphenyl]cyclohexane-1-carboxylic acid] the “effect of chemoprotectant regimen on paclitaxel inhibition of tumor cell growth” value [5] was “did not effect the inhibition of tumor cell growth”, the “effect of chemoprotectant regimen on paclitaxel inhibition of tumor cell growth” value [6] was “did not effect the inhibition of tumor cell growth” and the “effect of chemoprotectant regimen on paclitaxel inhibition of tumor cell growth” value [7] was “no additional protection”. The “Sulforhodamine B signal (survival) as percent of no-drug control” value [3] was 110%.
In the case of `CCn1c(=O)c2ccccc2n(-c2cccc([N+](=O)[O-])c2)c1=O` [Nitraquazone], the “Sulforhodamine B signal (survival) as percent of no-drug control” value [3] is reported as 115%.
